Measured values reported in ChEMBL document CHEMBL1123209, “Dipole moment in relation to H2 receptor histamine antagonist activity for cimetidine analogues” (J Med Chem, 1986).

Legend:
[1] = Partition coefficient (logD) (octanol/borax buffer); format: physicochemical
[2] = biological target: Histamine H2 receptor (Cavia porcellus) (UniProt P47747); test: Histamine H2 receptor blocking activity was determined in the isolated guinea pig right atrium against histamine stimulated tachycardia; format: tissue-based; details: Cardiac atrium
Histamine H2 receptor (Cavia porcellus), sequence (P47747 whole entry): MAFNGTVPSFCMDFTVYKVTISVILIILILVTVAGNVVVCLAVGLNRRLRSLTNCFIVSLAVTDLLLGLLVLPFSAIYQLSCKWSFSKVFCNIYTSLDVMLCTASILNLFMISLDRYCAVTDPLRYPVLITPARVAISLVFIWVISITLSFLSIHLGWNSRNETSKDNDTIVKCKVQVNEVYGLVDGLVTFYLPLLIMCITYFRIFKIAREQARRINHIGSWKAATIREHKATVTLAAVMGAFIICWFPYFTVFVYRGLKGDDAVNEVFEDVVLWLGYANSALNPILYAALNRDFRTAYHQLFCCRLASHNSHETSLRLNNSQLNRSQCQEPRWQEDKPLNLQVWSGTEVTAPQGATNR

logD [1]	-Log KB [2]	SMILES
0.55		C/N=C(\S)NCCSCc1[nH]cnc1C [METIAMIDE]
-0.08	4.23	C/N=c1\c(O)c(O)\c1=N\CCSCc1[nH]cnc1C
-0.06	4.69	CNC(=O)NCCSCc1[nH]cnc1C
1.04	7.31	Cc1[nH]cnc1CSCCNc1[nH]ccc1[N+](=O)[O-]
-0.87	6.31	Cc1[nH]cnc1CSCCNC1=C([N+](=O)[O-])CCN1
-0.4	5.85	CN/C(=C/[N+](=O)[O-])NCCSCc1[nH]cnc1C
-0.5	4.21	Cc1[nH]cnc1CSCCNC1=NC(=O)CN1
0.79	< 4	Cc1[nH]cnc1CSCCNc1cccc(O)n1
-0.4	< 4.5	Cc1[nH]cnc1CSCCNc1ccnc(O)n1
0.8	4.8	Cc1[nH]cnc1CSCCNc1cc(O)ccn1
0.02	5.13	Cc1[nH]cnc1CSCCNc1nccc(O)n1
-0.2	6.44	Cc1[nH]cnc1CSCCNc1nccc(O)c1[N+](=O)[O-]
	6.04	CNC(=S)NCCSCc1[nH]cnc1C
-0.74	4.57	Cc1[nH]cnc1CSCCNC1=NCCS(=O)(=O)N1

SMILES	logD [1]	-Log KB [2]
C/N=C(/NCCSCc1[nH]cnc1C)N[N+](=O)[O-]		5.84
CNC(=N[N+](=O)[O-])NCCSCc1nc[nH]c1C	0.13	
